Assay results published in US11040981B2, “Pyrrolotriazine compounds and methods of inhibiting TAM kinases” (Syros Pharmaceuticals, Inc., priority 2017, dated 2021).

Experiments:
[1] = target: T1, MERTK (Homo sapiens, UniProt Q12866); test: TR-FRET kinase activity assay, MERTK; format: biochemical; conditions: for IC50: TR-FRET activity assay, ATP at Km, 60 minutes, read-out: Mer IC50; for FLT3/Mer ratio (FLT3 IC50/Mer IC50): ratio of Mer to FLT3: FLT3 IC50/Mer IC50
T1 sequence (Q12866 21-999): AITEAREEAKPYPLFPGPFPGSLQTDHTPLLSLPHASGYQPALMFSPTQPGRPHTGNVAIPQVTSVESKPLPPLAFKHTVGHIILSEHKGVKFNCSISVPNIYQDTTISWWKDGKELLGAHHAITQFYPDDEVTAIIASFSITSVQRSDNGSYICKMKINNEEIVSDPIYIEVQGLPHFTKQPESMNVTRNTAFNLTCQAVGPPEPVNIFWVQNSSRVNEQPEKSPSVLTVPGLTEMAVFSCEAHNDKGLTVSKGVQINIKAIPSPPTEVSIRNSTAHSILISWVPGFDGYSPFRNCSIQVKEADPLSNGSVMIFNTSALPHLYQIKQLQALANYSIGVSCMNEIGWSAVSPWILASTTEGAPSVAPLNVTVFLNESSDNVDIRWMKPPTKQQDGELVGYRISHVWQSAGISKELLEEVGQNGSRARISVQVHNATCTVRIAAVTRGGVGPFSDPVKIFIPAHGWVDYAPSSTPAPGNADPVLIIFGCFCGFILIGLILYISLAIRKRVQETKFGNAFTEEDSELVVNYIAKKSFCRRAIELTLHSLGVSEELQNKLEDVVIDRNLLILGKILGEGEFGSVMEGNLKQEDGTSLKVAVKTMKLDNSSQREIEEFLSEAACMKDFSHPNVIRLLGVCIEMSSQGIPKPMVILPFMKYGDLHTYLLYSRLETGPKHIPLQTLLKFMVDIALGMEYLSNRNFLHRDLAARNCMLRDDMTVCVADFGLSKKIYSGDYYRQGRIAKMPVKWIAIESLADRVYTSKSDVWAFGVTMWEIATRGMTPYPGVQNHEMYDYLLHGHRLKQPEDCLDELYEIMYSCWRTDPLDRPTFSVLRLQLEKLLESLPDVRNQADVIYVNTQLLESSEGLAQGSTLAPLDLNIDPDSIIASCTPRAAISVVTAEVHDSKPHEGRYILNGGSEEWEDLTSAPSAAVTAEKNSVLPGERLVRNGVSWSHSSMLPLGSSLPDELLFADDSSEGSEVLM
Method in brief: (§1)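 Compounds were tested against each kinase with ATP set at its own Km and a labelled tyrosine peptide substrate. Following one hour at room temperature in buffer containing 10 mM MgCl2 and 1 mM DTT, phosphorylated product was detected by Europium antibody TR-FRET after EDTA quench, and IC50 values were calculated.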

[2] = target: T2, TYRO3 (Homo sapiens, UniProt Q06418); test: TR-FRET kinase activity assay, TYRO3; format: biochemical; conditions: ATP at Km, 60 minutes
T2 sequence (Q06418 41-890): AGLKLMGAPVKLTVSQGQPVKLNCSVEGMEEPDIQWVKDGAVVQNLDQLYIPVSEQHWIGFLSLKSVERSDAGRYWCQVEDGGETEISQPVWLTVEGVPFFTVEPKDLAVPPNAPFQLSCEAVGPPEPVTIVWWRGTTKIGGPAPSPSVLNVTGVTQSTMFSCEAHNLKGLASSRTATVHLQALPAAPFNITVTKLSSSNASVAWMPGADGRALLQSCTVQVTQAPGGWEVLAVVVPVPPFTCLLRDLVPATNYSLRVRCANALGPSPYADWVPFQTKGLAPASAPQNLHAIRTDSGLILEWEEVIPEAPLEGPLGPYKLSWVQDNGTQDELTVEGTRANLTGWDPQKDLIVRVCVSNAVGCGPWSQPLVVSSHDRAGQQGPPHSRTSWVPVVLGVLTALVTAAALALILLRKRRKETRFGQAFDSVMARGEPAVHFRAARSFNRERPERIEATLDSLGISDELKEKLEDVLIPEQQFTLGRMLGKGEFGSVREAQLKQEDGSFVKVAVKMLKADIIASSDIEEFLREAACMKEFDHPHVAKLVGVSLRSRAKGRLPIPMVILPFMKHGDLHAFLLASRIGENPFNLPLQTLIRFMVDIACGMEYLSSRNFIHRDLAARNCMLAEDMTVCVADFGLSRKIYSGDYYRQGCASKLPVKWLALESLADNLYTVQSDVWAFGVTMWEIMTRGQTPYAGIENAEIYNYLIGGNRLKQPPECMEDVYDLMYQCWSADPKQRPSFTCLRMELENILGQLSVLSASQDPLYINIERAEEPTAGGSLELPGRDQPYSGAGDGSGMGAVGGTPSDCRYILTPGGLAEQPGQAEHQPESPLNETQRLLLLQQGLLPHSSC
Method in brief: as §1

SMILES | IC50 [1] | FLT3/Mer ratio (FLT3 IC50/Mer IC50) [1] | IC50 [2]
COC[C@H](C)Nc1ncc2c(-c3cnn(Cc4cnccn4)c3)cc([C@H]3CC[C@H](O)CC3)n2n1 [Compound 305] | ≤ 100 nM | +++ (“+++” represents a ratio of >100) | ≤ 100 nM
CC[C@H](C)Nc1ncc2c(-c3ccc(CN4CCN(C)CC4)cc3)cc([C@H]3CC[C@H](O)CC3)n2n1 [Compound 118] | ≤ 100 nM | ++ (“++” represents a ratio of between 10 and 100) | ≤ 100 nM
COC[C@H](C)Nc1ncc2c(-c3cnn(Cc4nnc(C)o4)c3)cc([C@H]3CC[C@H](O)CC3)n2n1 [Compound 277] | ≤ 100 nM | +++ (“+++” represents a ratio of >100) | ≤ 100 nM
COC[C@H](C)Nc1ncc2c(-c3cnn(C4CN(CCC(F)(F)F)C4)c3)cc([C@H]3CC[C@H](O)CC3)n2n1 [Compound 291] | ≤ 100 nM | +++ (“+++” represents a ratio of >100) | ≤ 100 nM
Cc1ccc(-c2cc([C@H]3CC[C@H](O)CC3)n3nc(N[C@@H](C)COC(F)F)ncc23)cn1 [Compound 321] | ≤ 100 nM | +++ (“+++” represents a ratio of >100) | ≤ 100 nM
COCCn1cc(-c2cc([C@H]3CC[C@H](O)CC3)n3nc(N[C@@H](C)COC(F)F)ncc23)cn1 [Compound 274] | ≤ 100 nM | +++ (“+++” represents a ratio of >100) | ≤ 100 nM
Cc1nnc(Cn2cc(-c3cc([C@H]4CC[C@H](O)CC4)n4nc(N[C@@H](C)CC(F)(F)F)ncc34)cn2)o1 [Compound 296] | ≤ 100 nM | ++ (“++” represents a ratio of between 10 and 100) | ≤ 100 nM
CCCCC[C@H](C)Nc1ncc2c(N3CCNCC3)cc([C@H]3CC[C@H](O)CC3)n2n1 [Compound 114] | ≤ 100 nM | +++ (“+++” represents a ratio of >100) | ≤ 100 nM
C[C@@H](CC(F)(F)F)Nc1ncc2c(-c3cncc(C(=O)N(C)C)c3)cc([C@H]3CC[C@H](O)CC3)n2n1 [Compound 310] | ≤ 100 nM | +++ (“+++” represents a ratio of >100) | ≤ 100 nM
COC[C@H](C)Nc1ncc2c(-c3cnn(Cc4ccnnc4)c3)cc([C@H]3CC[C@H](O)CC3)n2n1 [Compound 281] | ≤ 100 nM | +++ (“+++” represents a ratio of >100) | ≤ 100 nM
COC[C@H](C)Nc1ncc2c(-c3ccnc(N4CCN(S(C)(=O)=O)CC4)c3)cc([C@H]3CC[C@H](O)CC3)n2n1 [Compound 338] | ≤ 100 nM | +++ (“+++” represents a ratio of >100) | ≤ 100 nM
C[C@@H](CC(F)(F)F)Nc1ncc2c(-c3cnn(CCS(C)(=O)=O)c3)cc([C@H]3CC[C@H](O)CC3)n2n1 [Compound 288] | ≤ 100 nM | ++ (“++” represents a ratio of between 10 and 100) | ≤ 100 nM
COCC(C)Nc1ncc2c(-c3cnn(Cc4ccc(=O)n(C)c4)c3)cc(C3CCC(O)CC3)n2n1 (stereo not drawn) [Compound 322] | ≤ 100 nM | +++ (“+++” represents a ratio of >100) | ≤ 100 nM
